Legend:
Type in all cases: biochemical
Mnk2(h) = target: T1, Mnk2(h) (Homo sapiens, UniProt Q9HBH9); assay: Eurofins KinaseProfiler radiometric kinase assay; conditions: read-out: Mnk2(h) % Residual activity
T1 construct: purchased Eurofins KinaseProfiler (Eurofins Cerep)

JAK2(h) = target: T2, JAK2(h) (Homo sapiens, UniProt O60674); assay: Eurofins KinaseProfiler radiometric kinase assay; conditions: read-out: JAK2(h) % Residual activity
T2 construct: purchased Eurofins KinaseProfiler (Eurofins Cerep)

FYNα = FYNα (Homo sapiens, UniProt P06241); assay: FYNα kinase assay, LANCE Ultra TR-FRET; conditions: mean ± SD of at least three independent determinations; ATP near Km; read-out: Fyn IC50
SRPK1(h) = target: T3, SRPK1(h) (Homo sapiens, UniProt Q96SB4); assay: Eurofins KinaseProfiler radiometric kinase assay; conditions: read-out: SRPK1(h) % Residual activity
T3 construct: purchased Eurofins (Eurofins Cerep) KinaseProfiler

CK1γ1(h) = target: T4, CK1γ1(h) (Homo sapiens, UniProt Q9HCP0); assay: Eurofins KinaseProfiler radiometric kinase assay; conditions: read-out: CK1γ1(h) % Residual activity
T4 construct: purchased Eurofins KinaseProfiler (Eurofins Cerep)

MSK2(h) = target: T5, MSK2(h) (Homo sapiens, UniProt O75676); assay: Eurofins KinaseProfiler radiometric kinase assay; conditions: for remaining activity at 10 µM: read-out: MSK2(h) % Residual activity
T5 construct: purchased Eurofins KinaseProfiler (Eurofins Cerep)
T5 sequence (O75676 whole entry): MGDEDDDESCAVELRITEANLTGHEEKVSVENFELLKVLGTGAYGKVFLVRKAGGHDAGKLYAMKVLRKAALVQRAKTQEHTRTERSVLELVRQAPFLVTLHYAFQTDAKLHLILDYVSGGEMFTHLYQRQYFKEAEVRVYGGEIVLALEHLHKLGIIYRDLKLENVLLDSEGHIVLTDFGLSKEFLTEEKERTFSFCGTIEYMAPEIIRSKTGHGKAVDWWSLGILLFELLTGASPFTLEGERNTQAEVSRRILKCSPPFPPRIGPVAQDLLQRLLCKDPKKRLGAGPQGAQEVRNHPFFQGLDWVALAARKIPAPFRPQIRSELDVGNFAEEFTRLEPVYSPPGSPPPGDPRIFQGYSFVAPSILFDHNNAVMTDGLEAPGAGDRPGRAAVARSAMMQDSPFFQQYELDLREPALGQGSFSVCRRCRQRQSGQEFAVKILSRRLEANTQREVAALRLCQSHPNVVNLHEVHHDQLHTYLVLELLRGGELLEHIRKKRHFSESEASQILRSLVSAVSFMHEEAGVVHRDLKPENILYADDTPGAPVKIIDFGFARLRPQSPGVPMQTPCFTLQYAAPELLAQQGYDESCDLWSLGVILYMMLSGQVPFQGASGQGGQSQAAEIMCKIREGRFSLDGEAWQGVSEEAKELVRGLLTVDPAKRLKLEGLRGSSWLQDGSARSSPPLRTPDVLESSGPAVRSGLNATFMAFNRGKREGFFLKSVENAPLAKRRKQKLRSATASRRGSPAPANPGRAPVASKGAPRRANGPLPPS

CHK1(h) = target: T6, CHK1(h) (Homo sapiens, UniProt O14757); assay: Eurofins KinaseProfiler radiometric kinase assay; conditions: read-out: CHK1(h) % Residual activity
T6 construct: purchased Eurofins KinaseProfiler (Eurofins Cerep)

Aurora-A(h) = target: T7, Aurora-A(h) (Homo sapiens, UniProt O14965); assay: Eurofins KinaseProfiler radiometric kinase assay; conditions: read-out: Aurora-A(h) % Residual activity
T7 construct: purchased Eurofins KinaseProfiler (Eurofins Cerep)

EphB4(h) = target: T8, EphB4(h) (Homo sapiens, UniProt P54760); assay: Eurofins KinaseProfiler radiometric kinase assay; conditions: read-out: EphB4(h) % Residual activity
T8 construct: purchased Eurofins KinaseProfiler (Eurofins Cerep)

PKA(h) = target: T9, PKA(h) (Homo sapiens, UniProt P17612); assay: Eurofins KinaseProfiler radiometric kinase assay; conditions: for remaining activity at 10 µM: read-out: PKA(h) % Residual activity
T9 construct: purchased Eurofins KinaseProfiler (Eurofins Cerep)

[1] = target: T10, PI3 Kinase (p110α/p85α)(h) (Homo sapiens, UniProt P42336); assay: Eurofins KinaseProfiler radiometric kinase assay; conditions: read-out: PI3 Kinase (p110α/p85α)(h) % Residual activity
T10 construct: purchased Eurofins (Eurofins Cerep) KinaseProfiler
T10 sequence (P42336 whole entry): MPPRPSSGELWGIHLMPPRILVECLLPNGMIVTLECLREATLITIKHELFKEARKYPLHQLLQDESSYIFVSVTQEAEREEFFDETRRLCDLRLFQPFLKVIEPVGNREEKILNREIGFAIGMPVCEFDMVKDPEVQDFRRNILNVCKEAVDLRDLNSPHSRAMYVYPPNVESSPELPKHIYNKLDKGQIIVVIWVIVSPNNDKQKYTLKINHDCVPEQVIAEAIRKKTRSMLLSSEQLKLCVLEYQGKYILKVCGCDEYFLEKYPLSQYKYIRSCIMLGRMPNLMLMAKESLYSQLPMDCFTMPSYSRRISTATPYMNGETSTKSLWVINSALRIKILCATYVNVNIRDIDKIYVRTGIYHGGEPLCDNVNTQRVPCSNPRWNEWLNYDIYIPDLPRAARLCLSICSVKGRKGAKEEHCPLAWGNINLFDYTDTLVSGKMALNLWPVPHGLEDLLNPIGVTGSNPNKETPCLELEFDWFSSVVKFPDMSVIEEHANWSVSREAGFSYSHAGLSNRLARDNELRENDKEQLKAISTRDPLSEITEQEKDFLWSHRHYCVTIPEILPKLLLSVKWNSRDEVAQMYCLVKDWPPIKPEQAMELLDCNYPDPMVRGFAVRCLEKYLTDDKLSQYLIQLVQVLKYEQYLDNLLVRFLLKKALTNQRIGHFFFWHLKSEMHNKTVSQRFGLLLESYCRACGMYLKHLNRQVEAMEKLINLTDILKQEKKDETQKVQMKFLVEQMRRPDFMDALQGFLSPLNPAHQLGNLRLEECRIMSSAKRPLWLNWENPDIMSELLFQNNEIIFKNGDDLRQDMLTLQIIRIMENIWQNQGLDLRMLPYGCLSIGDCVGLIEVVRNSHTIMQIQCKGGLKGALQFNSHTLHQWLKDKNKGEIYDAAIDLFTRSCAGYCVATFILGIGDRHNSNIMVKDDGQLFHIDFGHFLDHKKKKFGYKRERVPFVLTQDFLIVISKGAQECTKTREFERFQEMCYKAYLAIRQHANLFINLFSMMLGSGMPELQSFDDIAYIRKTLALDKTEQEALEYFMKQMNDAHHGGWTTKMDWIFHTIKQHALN
T10 sequence (P27986 whole entry partner): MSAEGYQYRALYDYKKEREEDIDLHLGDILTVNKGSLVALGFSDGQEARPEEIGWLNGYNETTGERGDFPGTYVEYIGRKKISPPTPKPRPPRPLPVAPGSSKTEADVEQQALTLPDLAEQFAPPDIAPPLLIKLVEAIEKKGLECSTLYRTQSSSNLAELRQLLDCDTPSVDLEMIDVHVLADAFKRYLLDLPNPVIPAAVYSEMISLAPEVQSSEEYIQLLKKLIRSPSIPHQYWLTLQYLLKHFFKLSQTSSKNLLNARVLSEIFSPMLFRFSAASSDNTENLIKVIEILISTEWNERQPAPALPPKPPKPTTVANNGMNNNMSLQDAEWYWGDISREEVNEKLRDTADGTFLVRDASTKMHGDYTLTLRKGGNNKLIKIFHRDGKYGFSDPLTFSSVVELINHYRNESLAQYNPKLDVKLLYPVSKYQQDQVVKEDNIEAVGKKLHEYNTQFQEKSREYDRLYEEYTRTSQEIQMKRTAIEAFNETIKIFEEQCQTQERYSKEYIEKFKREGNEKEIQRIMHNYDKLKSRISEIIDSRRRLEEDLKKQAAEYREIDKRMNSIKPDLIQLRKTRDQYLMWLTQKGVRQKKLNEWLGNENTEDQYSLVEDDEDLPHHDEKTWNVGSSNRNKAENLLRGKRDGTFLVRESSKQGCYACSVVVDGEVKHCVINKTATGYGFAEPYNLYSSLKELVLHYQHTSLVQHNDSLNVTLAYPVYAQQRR

[2] = target: T11, PI3 Kinase (p110β/p85α)(h) (Homo sapiens, UniProt P42338); assay: Eurofins KinaseProfiler radiometric kinase assay; conditions: read-out: PI3 Kinase (p110β/p85α)(h) % Residual activity
T11 construct: purchased Eurofins (Eurofins Cerep) KinaseProfiler

NEK2(h) = target: T12, NEK2(h) (Homo sapiens, UniProt P51955); assay: Eurofins KinaseProfiler radiometric kinase assay; conditions: read-out: NEK2(h) % Residual activity
T12 construct: purchased Eurofins KinaseProfiler (Eurofins Cerep)

KDR(h) = target: T13, KDR(h) (Homo sapiens, UniProt P35968); assay: Eurofins KinaseProfiler radiometric kinase assay; conditions: read-out: KDR(h) % Residual activity
T13 construct: purchased Eurofins KinaseProfiler (Eurofins Cerep)

PDGFRβ(h) = target: T14, PDGFRβ(h) (Homo sapiens, UniProt P09619); assay: Eurofins KinaseProfiler radiometric kinase assay; conditions: read-out: PDGFRβ(h) % Residual activity
T14 construct: purchased Eurofins KinaseProfiler (Eurofins Cerep)

CK2α2(h) = target: T15, CK2α2(h) (Homo sapiens, UniProt P19784); assay: Eurofins KinaseProfiler radiometric kinase assay; conditions: read-out: CK2α2(h) % Residual activity
T15 construct: purchased Eurofins KinaseProfiler (Eurofins Cerep)

CDK9/cyclin T1(h) = target: T16, CDK9/cyclin T1(h) (Homo sapiens, UniProt P50750); assay: Eurofins KinaseProfiler radiometric kinase assay; conditions: for remaining activity at 10 µM: read-out: CDK9/cyclin T1(h) % Residual activity
T16 construct: purchased Eurofins KinaseProfiler (Eurofins Cerep)
T16 sequence (P50750 whole entry): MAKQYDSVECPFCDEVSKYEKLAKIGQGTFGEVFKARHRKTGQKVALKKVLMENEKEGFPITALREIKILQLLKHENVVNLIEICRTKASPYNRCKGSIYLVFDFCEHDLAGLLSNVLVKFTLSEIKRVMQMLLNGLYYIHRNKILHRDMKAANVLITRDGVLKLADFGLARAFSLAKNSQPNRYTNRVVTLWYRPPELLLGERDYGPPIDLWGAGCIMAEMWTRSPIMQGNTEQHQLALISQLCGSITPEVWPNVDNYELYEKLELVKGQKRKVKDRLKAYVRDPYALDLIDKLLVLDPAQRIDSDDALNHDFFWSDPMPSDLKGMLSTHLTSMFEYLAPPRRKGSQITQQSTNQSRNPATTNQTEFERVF
T16 sequence (O60563 whole entry partner): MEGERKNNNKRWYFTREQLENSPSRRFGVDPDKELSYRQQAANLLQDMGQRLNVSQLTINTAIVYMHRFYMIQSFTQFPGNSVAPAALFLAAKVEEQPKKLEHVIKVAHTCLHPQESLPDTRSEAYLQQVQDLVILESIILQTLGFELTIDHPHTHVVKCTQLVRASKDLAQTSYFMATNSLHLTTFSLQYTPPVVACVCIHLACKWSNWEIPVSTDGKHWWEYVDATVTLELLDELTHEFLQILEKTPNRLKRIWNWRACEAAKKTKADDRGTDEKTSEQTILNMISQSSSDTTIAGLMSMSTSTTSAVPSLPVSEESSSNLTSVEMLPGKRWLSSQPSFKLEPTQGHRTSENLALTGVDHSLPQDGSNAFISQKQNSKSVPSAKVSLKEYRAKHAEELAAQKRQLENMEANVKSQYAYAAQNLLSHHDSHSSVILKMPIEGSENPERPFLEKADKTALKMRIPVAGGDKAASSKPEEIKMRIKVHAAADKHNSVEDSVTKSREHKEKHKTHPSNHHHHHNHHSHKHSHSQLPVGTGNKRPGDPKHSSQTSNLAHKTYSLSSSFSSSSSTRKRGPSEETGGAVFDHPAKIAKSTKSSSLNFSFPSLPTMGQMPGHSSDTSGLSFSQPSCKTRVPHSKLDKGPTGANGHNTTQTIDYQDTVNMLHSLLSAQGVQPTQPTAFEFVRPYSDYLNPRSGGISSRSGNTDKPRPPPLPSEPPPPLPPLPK

PKG1α(h) = target: T17, PKG1α(h) (Homo sapiens, UniProt Q13976); assay: Eurofins KinaseProfiler radiometric kinase assay; conditions: read-out: PKG1α(h) % Residual activity
T17 construct: purchased Eurofins KinaseProfiler (Eurofins Cerep)

AMPKα1(h) = target: T18, AMPKα1(h) (Homo sapiens, UniProt Q13131); assay: Eurofins KinaseProfiler radiometric kinase assay; conditions: read-out: AMPKα1(h) % Residual activity
T18 construct: purchased Eurofins KinaseProfiler (Eurofins Cerep)

MAPKAP-K2(h) = target: T19, MAPKAP-K2(h) (Homo sapiens, UniProt P49137); assay: Eurofins KinaseProfiler radiometric kinase assay; conditions: read-out: MAPKAP-K2(h) % Residual activity
T19 construct: purchased Eurofins KinaseProfiler (Eurofins Cerep)

Pim-1(h) = target: T20, Pim-1(h) (Homo sapiens, UniProt P11309); assay: Eurofins KinaseProfiler radiometric kinase assay; conditions: read-out: Pim-1(h) % Residual activity
T20 construct: purchased Eurofins KinaseProfiler (Eurofins Cerep)

IGF-1R(h) = target: T21, IGF-1R(h) (Homo sapiens, UniProt P08069); assay: Eurofins KinaseProfiler radiometric kinase assay; conditions: read-out: IGF-1R(h) % Residual activity
T21 construct: purchased Eurofins KinaseProfiler (Eurofins Cerep)
T21 sequence (P08069 31-1367): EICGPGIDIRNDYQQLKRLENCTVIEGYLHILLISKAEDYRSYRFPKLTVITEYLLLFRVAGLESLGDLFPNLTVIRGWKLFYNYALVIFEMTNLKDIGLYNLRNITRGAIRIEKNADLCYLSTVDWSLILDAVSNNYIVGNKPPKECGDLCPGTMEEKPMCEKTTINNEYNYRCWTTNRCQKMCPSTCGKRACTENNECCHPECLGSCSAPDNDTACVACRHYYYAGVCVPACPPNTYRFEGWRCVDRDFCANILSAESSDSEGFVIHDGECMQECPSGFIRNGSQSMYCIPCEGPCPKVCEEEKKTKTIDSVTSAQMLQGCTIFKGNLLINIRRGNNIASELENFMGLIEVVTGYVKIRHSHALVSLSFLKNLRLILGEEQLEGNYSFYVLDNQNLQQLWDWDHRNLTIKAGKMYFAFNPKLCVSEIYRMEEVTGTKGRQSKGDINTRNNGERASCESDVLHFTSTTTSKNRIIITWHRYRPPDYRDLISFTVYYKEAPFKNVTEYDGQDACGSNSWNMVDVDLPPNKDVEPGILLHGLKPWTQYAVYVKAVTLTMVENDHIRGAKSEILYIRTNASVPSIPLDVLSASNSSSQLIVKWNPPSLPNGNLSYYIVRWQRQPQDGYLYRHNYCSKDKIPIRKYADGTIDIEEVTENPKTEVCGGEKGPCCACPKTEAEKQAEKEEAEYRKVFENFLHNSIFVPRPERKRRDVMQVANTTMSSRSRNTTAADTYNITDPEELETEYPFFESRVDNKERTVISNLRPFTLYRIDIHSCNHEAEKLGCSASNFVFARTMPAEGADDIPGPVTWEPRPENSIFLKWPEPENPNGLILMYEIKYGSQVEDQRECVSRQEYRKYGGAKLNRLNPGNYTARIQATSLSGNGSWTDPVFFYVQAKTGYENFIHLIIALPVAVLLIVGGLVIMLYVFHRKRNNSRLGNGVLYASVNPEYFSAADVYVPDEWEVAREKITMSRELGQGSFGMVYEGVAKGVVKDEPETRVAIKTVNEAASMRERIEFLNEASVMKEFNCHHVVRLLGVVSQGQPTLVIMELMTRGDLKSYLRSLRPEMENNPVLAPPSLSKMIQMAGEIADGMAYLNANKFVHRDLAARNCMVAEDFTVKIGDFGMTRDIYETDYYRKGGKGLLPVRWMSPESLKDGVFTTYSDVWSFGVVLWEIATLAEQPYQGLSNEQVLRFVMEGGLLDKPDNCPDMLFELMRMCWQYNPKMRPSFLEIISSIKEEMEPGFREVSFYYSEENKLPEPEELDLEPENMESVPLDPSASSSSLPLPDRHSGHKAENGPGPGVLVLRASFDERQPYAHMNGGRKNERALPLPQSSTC

SMILES | remaining activity at 10 µM (Mnk2(h)) [%] | remaining activity at 10 µM (JAK2(h)) [%] | IC50 (FYNα) [nM] | remaining activity at 10 µM (SRPK1(h)) [%] | remaining activity at 10 µM (CK1γ1(h)) [%] | remaining activity at 10 µM (MSK2(h)) [%] | remaining activity at 10 µM (CHK1(h)) [%] | remaining activity at 10 µM (Aurora-A(h)) [%] | remaining activity at 10 µM (EphB4(h)) [%] | remaining activity at 10 µM (PKA(h)) [%] | remaining activity at 10 µM [1] [%] | remaining activity at 10 µM [2] [%] | remaining activity at 10 µM (NEK2(h)) [%] | remaining activity at 10 µM (KDR(h)) [%] | remaining activity at 10 µM (PDGFRβ(h)) [%] | remaining activity at 10 µM (CK2α2(h)) [%] | remaining activity at 10 µM (CDK9/cyclin T1(h)) [%] | remaining activity at 10 µM (PKG1α(h)) [%] | remaining activity at 10 µM (AMPKα1(h)) [%] | remaining activity at 10 µM (MAPKAP-K2(h)) [%] | further results
Br.Cc1sc(NCc2ccccc2)nc1-c1c[nH]c2ncc(Br)cc12 [Compound 41, N-Benzyl-4-(5-bromo-1H-pyrrolo[2,3-b]pyridin-3-yl)-5-methylthiazol-2-amine Hydrobromide] | 17 | 26 | 50 ± 10 | 85 | 93 | 59 | 111 | 11 | 109 | 111 | 97 | 89 | 56 | 16 | 95 | 83 | 50 | 80 | 54 | 33 | remaining activity at 10 µM (Pim-1(h)): 20%; remaining activity at 10 µM (IGF-1R(h)): 83%
Br.Cc1sc(NCc2ccnc(Cl)c2)nc1-c1c[nH]c2ncccc12 [Compound 43, N-((2-Chloropyridin-4-yl)methyl)-5-methyl-4-(1H-pyrrolo[2,3-b]pyridin-3-yl)thiazol-2-amine Hydrobromide] | 27 | 46 | 44 ± 3 | 96 | 77 | 1 | 112 | 27 | 108 | 8 | 96 | 94 | 84 | 15 | 93 | 100 | 5 | 40 | 60 | 45 | inhibition at 10 µM (MSK2(h)): > 90%; inhibition at 10 µM (PKA(h)): > 90%; inhibition at 10 µM (CDK9/cyclin T1(h)): > 90%; remaining activity at 10 µM (Pim-1(h)): 55%; remaining activity at 10 µM (IGF-1R(h)): 68%

Source: publication PMC12406253, “Exploration of the Neuromodulatory Properties of Fyn and GSK-3β Kinases Exploiting 7‑Azaindole-Based Inhibitors” (Journal of Medicinal Chemistry, 2025)
